In patent publication US7750003B2, “Compounds-943” (AstraZeneca AB, priority 2006, dated 2010):

Test system: phosphorylation of Serine 473 in Akt in MDA-MB-468 human breast adenocarcinoma cells
Test: In vitro phospho-Ser473 Akt assay (Test (c))
Type: cell-based
Conditions: Homo sapiens, MDA-MB-468, 2 h, MDA-MB-468 cells, 2 hours incubation; read-out: Test (c): IC50 versus Serine 473 in Akt
Experimental: (c) In Vitro Phospho-Ser473 Akt Assay
This assay determines the ability of test compounds to inhibit phosphorylation of Serine 473 in Akt as assessed using Acumen Explorer technology (Acumen Bioscience Limited), a plate reader that can be used to rapidly quantitate features of images generated by laser-scanning.
A MDA-MB-468 human breast adenocarcinoma cell line (LGC Promochem, Teddington, Middlesex, UK, Catalogue No. HTB-132) was routinely maintained at 37° C. with 5% CO2 up to a confluency of 70-90% in DMEM containing 10% heat-inactivated FCS and 1% L-glutamine.
For the assay, the cells were detached from the culture flask using ‘Accutase’ (Innovative Cell Technologies Inc., San Diego, Calif., USA; Catalogue No. AT104) using standard tissue culture methods and resuspended in media to give 1.7×10^5 cells per mL. Aliquots (90 μl) were seeded into each of the inner 60 wells of a black Packard 96 well plate (PerkinElmer, Boston, Mass., USA; Catalogue No. 6005182) to give a density of 15000 cells per well. Aliquots (90 μl) of culture media were placed in the outer wells to prevent edge effects. The cells were incubated overnight at 37° C. with 5% CO2 to allow them to adhere.
On day 2, the cells were treated with test compounds and incubated for 2 hours at 37° C. with 5% CO2. Test compounds were prepared as 10 mM stock solutions in DMSO and serially diluted as required with growth media to give a range of concentrations that were 10-fold the required final test concentrations. Aliquots (10 μl) of each compound dilution were placed in a well (in triplicate) to give the final required concentrations. As a minimum response control, each plate contained wells having a final concentration of 100 μM LY294002 (Calbiochem, Beeston, UK, Catalogue No. 440202). As a maximum response control, wells contained 1% DMSO instead of test compound. Following incubation, the contents of the plates were fixed by treatment with a 1.6% aqueous formaldehyde solution (Sigma, Poole, Dorset, UK, Catalogue No. F1635) at room temperature for 1 hour.
All subsequent aspiration and wash steps were carried out using a Tecan 96 well plate washer (aspiration speed 10 mm/sec). The fixing solution was removed and the contents of the plates were washed with phosphate-buffered saline (PBS; 50 μl; Gibco, Catalogue No. 10010015). The contents of the plates were treated for 10 minutes at room temperature with an aliquot (50 μl) of a cell permeabilisation buffer consisting of a mixture of PBS and 0.5% Tween-20. The ‘permeabilisation’ buffer was removed and non-specific binding sites were blocked by treatment for 1 hour at room temperature of an aliquot (50 μl) of a blocking buffer consisting of 5% dried skimmed milk [‘Marvel’ (registered trade mark); Premier Beverages, Stafford, GB] in a mixture of PBS and 0.05% Tween-20. The ‘blocking’ buffer was removed and the cells were incubated for 1 hour at room temperature with rabbit anti phospho-Akt (Ser473) antibody solution (50 μl per well; Cell Signalling, Hitchin, Herts, U.K., Catalogue No 9277) that had been diluted 1:500 in ‘blocking’ buffer. Cells were washed three times in a mixture of PBS and 0.05% Tween-20. Subsequently, cells were incubated for 1 hour at room temperature with Alexafluor488 labelled goat anti-rabbit IgG (50 μl per well; Molecular Probes, Invitrogen Limited, Paisley, UK, Catalogue No. A11008) that had been diluted 1:500 in ‘blocking’ buffer. Cells were washed 3 times with a mixture of PBS and 0.05% Tween-20. An aliquot of PBS (50 μl) was added to each well and the plates were sealed with black plate sealers and the fluorescence signal was detected and analysed.
Fluorescence dose response data obtained with each compound were analysed and the degree of inhibition of Serine 473 in Akt was expressed as an IC50 value.

| IC50 [nM] | SMILES |
| --- | --- |
| 340 | CCNC(=O)Nc1ccc(-c2nc(N3CCOC[C@@H]3C)cc(C(C)(C)S(=O)(=O)C3CC3)n2)cc1 [Example 57k, 1-[4-[4-(2-cyclopropylsulfonylpropan-2-yl)-6-[(3S)-3-methylmorpholin-4-yl]pyrimidin-2-yl]phenyl]-3-ethyl-urea] |
| 120 | C[C@H]1COCCN1c1cc(CS(=O)(=O)c2ccc(F)cc2)nc(-c2ccc(NC(=O)NCCN(C)C)cc2)n1 [Example 61e, 3-(2-dimethylaminoethyl)-1-[4-[4-[(4-fluorophenyl)sulfonylmethyl]-6-[(3S)-3-methylmorpholin-4-yl]pyrimidin-2-yl]phenyl]urea] |
| 260 | CCNC(=O)Nc1ccc(-c2nc(N3CCOC[C@@H]3C)cc(C(C)(C)S(=O)(=O)C(C)(C)C)n2)cc1 [Example 66e, 3-ethyl-1-[4-[4-[(3S)-3-methylmorpholin-4-yl]-6-(2-tert-butylsulfonylpropan-2-yl)pyrimidin-2-yl]phenyl]urea] |
| 120 | CNC(=O)Nc1ccc(-c2nc(N3CCOC[C@@H]3C)cc(C(C)(C)S(=O)(=O)C(C)C)n2)cc1 [Example 60i, 3-methyl-1-[4-[4-[(3S)-3-methylmorpholin-4-yl]-6-(2-propan-2-ylsulfonylpropan-2-yl)pyrimidin-2-yl]phenyl]urea] |
| 210 | CC(C)CNC(=O)Nc1ccc(-c2nc(N3CCOC[C@@H]3C)cc(C(C)(C)S(=O)(=O)C(C)C)n2)cc1 [Example 60r, 1-[4-[4-[(3S)-3-methylmorpholin-4-yl]-6-(2-propan-2-ylsulfonylpropan-2-yl)pyrimidin-2-yl]phenyl]-3-(2-methylpropyl)urea] |
| 220 | CC(C)S(=O)(=O)Cc1cc(N2CCOC[C@@H]2C)nc(-c2ccc(NC(=O)NC(C)(C)CO)cc2)n1 [Example 60g, 3-(1-hydroxy-2-methyl-propan-2-yl)-1-[4-[4-[(3S)-3-methylmorpholin-4-yl]-6-(propan-2-ylsulfonylmethyl)pyrimidin-2-yl]phenyl]urea] |
| 38 | C[C@H]1COCCN1c1cc(C(C)(C)S(=O)(=O)c2ccc(F)cc2)nc(-c2ccc(NC(=O)NC3CCC3)cc2)n1 [Example 61n, 3-cyclobutyl-1-[4-[4-[2-(4-fluorophenyl)sulfonylpropan-2-yl]-6-[(3S)-3-methylmorpholin-4-yl]pyrimidin-2-yl]phenyl]urea] |
| 720 | C[C@H]1COCCN1c1cc(CS(=O)(=O)C2CC2)nc(-c2ccc(NC(=O)NCCN(C)C)cc2)n1 [Example 57f, 1-[4-[4-(cyclopropylsulfonylmethyl)-6-[(3S)-3-methylmorpholin-4-yl]pyrimidin-2-yl]phenyl]-3-(2-dimethylaminoethyl)urea] |
| 40 | C[C@H]1COCCN1c1cc(C(C)(C)S(=O)(=O)C(C)(C)C)nc(-c2ccc(NC(=O)NCCN(C)C)cc2)n1 [Example 66f, 3-(2-dimethylaminoethyl)-1-[4-[4-[(3S)-3-methylmorpholin-4-yl]-6-(2-tert-butylsulfonylpropan-2-yl)pyrimidin-2-yl]phenyl]urea] |
| 3000 | C[C@H]1COCCN1c1cc(CS(=O)(=O)CCO)nc(-c2ccc(NC(=O)NCc3cnn(C)c3)cc2)n1 [Example 53b, 1-[4-[4-(2-hydroxyethylsulfonylmethyl)-6-[(3S)-3-methylmorpholin-4-yl]pyrimidin-2-yl]phenyl]-3-[(1-methylpyrazol-4-yl)methyl]urea] |
| 160 | CCCNC(=O)Nc1ccc(-c2nc(N3CCOC[C@@H]3C)cc(C(C)(C)S(=O)(=O)C(C)C)n2)cc1 [Example 60q, 3-[4-[4-[(3S)-3-methylmorpholin-4-yl]-6-(2-propan-2-ylsulfonylpropan-2-yl)pyrimidin-2-yl]phenyl]-1-propyl-urea] |
| 86 | CC(C)S(=O)(=O)C(C)(C)c1cc(N2CCOC[C@@H]2C)nc(-c2ccc(NC(=O)NC(C)(C)CO)cc2)n1 [Example 60o, 3-(1-hydroxy-2-methyl-propan-2-yl)-1-[4-[4-[(3S)-3-methylmorpholin-4-yl]-6-(2-propan-2-ylsulfonylpropan-2-yl)pyrimidin-2-yl]phenyl]urea] |
| 270 | CC(C)S(=O)(=O)C(C)(C)c1cc(N2CCOC[C@@H]2C)nc(-c2ccc(NC(=O)Nc3cnn(C)c3)cc2)n1 [Example 60v, 1-[4-[4-[(3S)-3-methylmorpholin-4-yl]-6-(2-propan-2-ylsulfonylpropan-2-yl)pyrimidin-2-yl]phenyl]-3-(1-methylpyrazol-4-yl)urea] |

The next lines start with the compound.

| SMILES | IC50 [nM] |
| --- | --- |
| C[C@H]1COCCN1c1cc(C(C)(C)S(C)(=O)=O)nc(-c2ccc(NC(=O)NC3CC3)nc2)n1 [Example 24aj, 3-cyclopropyl-1-[5-[4-[(3S)-3-methylmorpholin-4-yl]-6-(2-methylsulfonylpropan-2-yl)pyrimidin-2-yl]pyridin-2-yl]urea] | 450 |
| C[C@H]1COCCN1c1cc(C(C)(C)S(C)(=O)=O)nc(-c2ccc(NC(=O)NCc3ncc[nH]3)cc2)n1 [Example 24au, 3-(1H-imidazol-2-ylmethyl)-1-[4-[4-[(3S)-3-methylmorpholin-4-yl]-6-(2-methylsulfonylpropan-2-yl)pyrimidin-2-yl]phenyl]urea] | 2400 |
| C[C@H]1COCCN1c1cc(CS(=O)(=O)CCO)nc(-c2ccc(NC(=O)Nc3ccon3)cc2)n1 [Example 40a, 1-[4-[4-(2-hydroxyethylsulfonylmethyl)-6-[(3S)-3-methylmorpholin-4-yl]pyrimidin-2-yl]phenyl]-3-(1,2-oxazol-3-yl)urea] | 55 |
| CC(C)S(=O)(=O)Cc1cc(N2CCOC[C@@H]2C)nc(-c2ccc(NC(=O)NC3CCC3)cc2)n1 [Example 60, 3-Cyclobutyl-1-[4-[4-[(3S)-3-methylmorpholin-4-yl]-6-(propan-2-ylsulfonylmethyl)pyrimidin-2-yl]phenyl]urea] | 1000 |
| C[C@H](CO)NC(=O)Nc1ccc(-c2nc(N3CCOC[C@@H]3C)cc(C(C)(C)S(C)(=O)=O)n2)cc1 [Example 24ap, 3-[(2R)-1-hydroxypropan-2-yl]-1-[4-[4-[(3S)-3-methylmorpholin-4-yl]-6-(2-methylsulfonylpropan-2-yl)pyrimidin-2-yl]phenyl]urea] | 77 |
| CNC(=O)Nc1ccc(-c2nc(N3CCOC[C@@H]3C)cc(C(C)(C)S(=O)(=O)C3CC3)n2)cc1 [Example 57, 1-[4-[4-(2-Cyclopropylsulfonylpropan-2-yl)-6-[(3S)-3-methylmorpholin-4-yl]pyrimidin-2-yl]phenyl]-3-methyl-urea] | 250 |
| C[C@H]1COCCN1c1cc(C(C)(C)S(C)(=O)=O)nc(-c2ccc(NC(=O)NCc3cnn(C)c3)cc2)n1 [Example 24av, 1-[4-[4-[(3S)-3-methylmorpholin-4-yl]-6-(2-methylsulfonylpropan-2-yl)pyrimidin-2-yl]phenyl]-3-[(1-methylpyrazol-4-yl)methyl]urea] | 4900 |
| C[C@H]1COCCN1c1cc(CS(=O)(=O)C23CC4CC(CC(C4)C2)C3)nc(-c2ccc(NC(=O)NC3CC3)cc2)n1 [Example 43k, 1-[4-[4-(1-adamantylsulfonylmethyl)-6-[(3S)-3-methylmorpholin-4-yl]pyrimidin-2-yl]phenyl]-3-cyclopropyl-urea] | 2900 |
| C[C@H]1COCCN1c1cc(C(C)(C)S(C)(=O)=O)nc(-c2ccc(NC(=O)N3CCOCC3)cc2)n1 [Example 24bb, N-[4-[4-[(3S)-3-methylmorpholin-4-yl]-6-(2-methylsulfonylpropan-2-yl)pyrimidin-2-yl]phenyl]morpholine-4-carboxamide] | 7800 |
| Cc1cc(CNC(=O)Nc2ccc(-c3nc(N4CCOC[C@@H]4C)cc(C(C)(C)S(C)(=O)=O)n3)cc2)no1 [Example 24aw, 3-[4-[4-[(3S)-3-methylmorpholin-4-yl]-6-(2-methylsulfonylpropan-2-yl)pyrimidin-2-yl]phenyl]-1-[(5-methyl-1,2-oxazol-3-yl)methyl]urea] | 3400 |
